In the experiment the target is T1, rhCRTh2 (Homo sapiens, UniProt Q9Y5Y4).
T1 construct: expressed in transfected cells; host or cells: HEK cells (membrane preparation)
T1 sequence (Q9Y5Y4 1-395): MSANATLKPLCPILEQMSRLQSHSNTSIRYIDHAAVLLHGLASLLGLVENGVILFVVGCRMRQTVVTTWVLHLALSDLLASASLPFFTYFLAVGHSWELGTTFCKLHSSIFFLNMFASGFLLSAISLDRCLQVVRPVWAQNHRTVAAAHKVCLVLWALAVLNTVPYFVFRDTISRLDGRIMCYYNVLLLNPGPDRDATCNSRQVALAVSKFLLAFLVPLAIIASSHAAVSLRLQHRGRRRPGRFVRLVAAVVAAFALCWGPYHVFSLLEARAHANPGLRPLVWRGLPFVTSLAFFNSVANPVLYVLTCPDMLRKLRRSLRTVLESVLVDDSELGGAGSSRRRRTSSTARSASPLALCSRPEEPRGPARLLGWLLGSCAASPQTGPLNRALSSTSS
The experiment in a line: Ligand binding assay, [3H]PGD2 SPA on HEK cell membranes. As to conditions: [3H]PGD2 displacement, membranes of HEK cells expressing rhCRTh2/Gα16, SPA beads, RT 2 hours. As for the experimental part: [^3H]PGD2 was purchased from Perkin Elmer Life Sciences with a specific activity of 100-210 Ci/mmol. All other chemicals were of analytical grade.
HEK cells expressing rhCRTh2/Gα16 were routinely maintained in DMEM containing 10% Foetal Bovine Serum (HyClone), 1 mg/ml geneticin, 2 mM L-glutamine and 1% non-essential amino acids. For the preparation of membranes, the adherent transfected HEKcells were grown to confluence in two layer tissue culture factories (Fisher, catalogue number TKT-170-070E). Maximal levels of receptor expression were induced by addition of […] sodium butyrate for the last 18 hours of culture. […] The final pellet was re-suspended in 4 ml of membrane homogenisation buffer per cell factory used and the protein content determined. […]
All assays were performed in Corning clear bottomed, white 96-well NBS plates (Fisher). […] (The optimum coating concentrations were determined for each batch of membranes) The beads were pelleted by centrifugation (800×g for 7 minutes at 4° C.), washed once with assay buffer (50 mM HEPES pH 7.4 containing 5 mM magnesium chloride) and finally re-suspended in assay buffer at a bead concentration of 10 mg/ml. […]

Take `Cc1c(Sc2ccc(-c3ccccc3)cc2)c2cc(F)ccc2n1CC(=O)O` [Example 1, [3-(Biphenyl-4-ylsulfanyl)-5-fluoro-2-methyl-indol-1-yl]-acetic acid]: the IC50 is 20 nM. In other words, the double-digit nanomolar range.

For orientation: IC50 means the concentration needed to halve the response being measured. Low values mean greater potency, high ones weaker potency.

(Values after patent US7741360B2, “Bi-aryl or aryl-heteroaryl substituted indoles” (AstraZeneca AB, priority 2006, dated 2010).)
